In PMC11173529, “Structure–Activity Relationship Studies in a Series of Xanthine Inhibitors of SLACK Potassium Channels” (Molecules, 2024):
Where two headings read alike, the source gives them in different places.

Assays:
WT hSLACK = target: T1, WT hSLACK (Homo sapiens, UniProt Q5JUK3); assay: Whole-cell automated patch-clamp (APC) in CHO cells stably expressing WT hSLACK; assay type: cell-based; details: for SLACK Imax: maximum inhibition at 30 µM test compound standardized to VU0606170 (set at 100%), WT hSLACK; for IC50: whole-cell APC, CHO cells stably expressing WT hSLACK, averages n ≥ 3, read-out: SLACK IC50
T1 construct: host or cells: CHO-K1
T1 sequence (Q5JUK3 1-1235 isoform Q5JUK3-3): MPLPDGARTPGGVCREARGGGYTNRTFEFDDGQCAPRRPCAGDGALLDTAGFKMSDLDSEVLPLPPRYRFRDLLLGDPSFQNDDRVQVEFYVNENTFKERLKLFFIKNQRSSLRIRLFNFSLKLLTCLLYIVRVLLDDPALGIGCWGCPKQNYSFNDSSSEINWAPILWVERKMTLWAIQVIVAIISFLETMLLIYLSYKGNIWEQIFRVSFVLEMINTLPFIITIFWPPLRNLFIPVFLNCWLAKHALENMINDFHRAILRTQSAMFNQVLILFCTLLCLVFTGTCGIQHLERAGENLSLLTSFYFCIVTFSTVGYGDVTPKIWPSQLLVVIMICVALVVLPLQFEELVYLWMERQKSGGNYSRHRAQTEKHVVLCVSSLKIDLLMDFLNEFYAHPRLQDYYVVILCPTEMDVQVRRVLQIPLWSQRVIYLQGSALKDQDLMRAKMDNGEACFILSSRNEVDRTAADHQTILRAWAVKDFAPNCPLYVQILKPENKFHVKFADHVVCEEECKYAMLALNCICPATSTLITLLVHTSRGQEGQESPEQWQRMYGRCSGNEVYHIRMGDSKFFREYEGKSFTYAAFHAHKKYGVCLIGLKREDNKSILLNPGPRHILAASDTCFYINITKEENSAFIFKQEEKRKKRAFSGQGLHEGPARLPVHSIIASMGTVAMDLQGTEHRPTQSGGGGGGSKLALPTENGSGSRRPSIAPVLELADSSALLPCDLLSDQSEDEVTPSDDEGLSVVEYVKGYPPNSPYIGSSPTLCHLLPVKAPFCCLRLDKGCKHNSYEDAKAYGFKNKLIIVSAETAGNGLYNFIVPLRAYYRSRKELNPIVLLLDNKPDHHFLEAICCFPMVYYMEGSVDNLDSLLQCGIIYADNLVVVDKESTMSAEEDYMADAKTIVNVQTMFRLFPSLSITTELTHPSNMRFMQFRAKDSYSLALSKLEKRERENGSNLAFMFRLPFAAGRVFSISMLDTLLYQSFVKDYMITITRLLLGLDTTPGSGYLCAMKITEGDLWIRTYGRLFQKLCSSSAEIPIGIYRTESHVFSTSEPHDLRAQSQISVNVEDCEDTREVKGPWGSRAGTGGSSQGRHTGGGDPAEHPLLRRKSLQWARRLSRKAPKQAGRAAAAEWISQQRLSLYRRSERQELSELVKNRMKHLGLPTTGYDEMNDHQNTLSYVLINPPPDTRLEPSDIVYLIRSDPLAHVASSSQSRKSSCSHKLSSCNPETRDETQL
Description: All new analogs were tested in our APC assay using CHO cells stably expressing WT SLACK using a concentration-response format with concentrations ranging from 0.125 to 30 μM in half-log steps and a minimum of three cells (replicates) per concentration series. […] Still, there were some notable results. For example, substitution at the 4-position was largely unfavorable regardless of the nature of the substituent (21, 24, 27, 30, and 33) apart from the 4-fluoro analog 18. […] As the trifluoromethyl group is similar in electronegativity to chlorine, but larger than both methyl and chlorine, perhaps the steric bulk of the trifluoromethyl is to blame for the poor potency of these analogs. With the exception of the fluoro (16–18) and cyano (28–30) analogs, substitution at the 3-position was favorable for SLACK activity, with 3-methoxy analog 32 standing out in this set.
Stably transfected monoclonal HEK293 cell lines expressing Slick, Maxi-K α1/β3, Maxi-K α1/β4, CaV3.2, GIRK 1/2, KV2.1, KV7.2, NaV1.7, and TASK-1 were generated as previously described. Stably transfected monoclonal HEK293 cell lines expressing hERG were generated as previously described. CHO-K1 cells expressing human Slack and disease-associated human Slack mutations, G288S and A934T, were generated by transfecting a PiggyBac TRE mammalian expression vector (VectorBuilder, Chicago, IL, USA) containing KCNT1. FuGENE 6 (Promega, Madison, WI, USA) transfection reagent and protocol, together with Opti-MEM (Thermo Fisher Scientific, Walkham, MA, USA), were utilized.
Automated patch-clamp recording was performed with a SyncroPatch 768 PE system (Nanion, Munich, Germany) as previously described. Whole-cell recordings were performed at room temperature. Cells were harvested by first washing with PBS without Mg^2+ or Ca^2+ (Gibco, Billings, MT, USA) to remove cell culture media, followed by dissociation with TryPLE (Gibco, Billings, MT, USA). Cells were then resuspended and diluted to 100,000 cells/mL in external solution. External solution contained 105 mM NaCl, 4 mM KCl, 1 mM MgCl2, 5 mM CaCl2, 10 mM HEPES, and 40 mM N-Methyl-D-glucamine chloride, titrated to pH of 7.4 and osmolarity of 300 mOsm/kg; internal solution contained 70 mM NaCl, 70 mM KF, 10 mM KCl, 5 mM EGTA, and 5 mM HEPES, titrated to a pH of 7.2 and osmolarity of 295 mOsm/kg.
The APC protocol was set as follows: Cells were held at a […] of −80 mV for 100 ms, then a ramp protocol was performed from −100 mV to 80 mV at 0.4 mV/ms, followed by holding the cell at −80 mV for another 100 ms, then steps were performed at −20 mV, 0 mV, +20 mV, +40 mV, and +60 mV for 100 ms of each step. Whole-cell currents were measured at 0 mV and normalized to current after external buffer addition. […] To obtain the concentration-response relationship graphs and IC50 values, we take the median value of the last 7 current amplitude values obtained for each set of data points collected for a given concentration at a particular step.

WT SLACK [1] = tested on: WT SLACK; design: method as in PMID 32408169; details: whole-cell patch-clamp electrophysiology; read-out: IC50 versus WT SLACK; cited from earlier work
hERG (KV11.1) channels = tested on: hERG (KV11.1) channels; design: method as in PMID 32408169; details: at 10 µM; cited from earlier work
GABAA Cl– channels = tested on: GABAA Cl– channels; design: method as in PMID 33859800; details: binding displacement assay; cited from earlier work
Kcnt1^L/L mice = tested on: Kcnt1^L/L mice; design: method as in PMID 36173683; details: mouse model using Kcnt1 L/L mice; cited from earlier work
SLACK = tested on: SLACK; design: method as in PMID 33859800; details: whole-cell patch-clamp electrophysiology; read-out: IC50 versus WT SLACK; cited from earlier work
WT SLACK [2] = tested on: WT SLACK; design: method as in earlier work; details: APC assay; read-out: IC50 versus WT SLACK; cited from earlier work
[3] = tested on: co-cultures of cortical neuronal and glial cells; design: method as in PMID 33143429; details: cited from earlier work
WT SLACK [4] = tested on: WT SLACK; design: method as in PMID 33143429; details: whole-cell APC, HEK-293 cells; read-out: IC50 versus WT SLACK; cited from earlier work
hERG channel = tested on: hERG channel; design: method as in PMID 33143429; details: Tl+-flux assay; cited from earlier work
WT SLACK [5] = tested on: WT SLACK; design: method as in PMID 37812884; details: whole-cell APC, CHO cells stably expressing WT SLACK; read-out: IC50 versus WT SLACK; cited from earlier work
A934T SLACK = tested on: A934T SLACK; design: method as in PMID 37812884; details: Tl+-flux assay; read-out: IC50 versus A934T SLACK; cited from earlier work
[6] = design: method as in PMID 37812884; details: cited from earlier work

In the case of `C[C@@H](c1ccccc1)N(C)c1nc2c(c(=O)n(Cc3ccccc3)c(=O)n2C)n1C` [Analog 66], the “SLACK Imax” value (WT hSLACK) is reported as 50% and the IC50 (WT hSLACK) is reported as > 10 µM.

For `CCN(Cc1ccccc1)c1nc2c(c(=O)n(Cc3ccccc3)c(=O)n2C)n1C` [Analog 67], the “SLACK Imax” value (WT hSLACK) was 100% and the IC50 (WT hSLACK) was 1.4 µM.

With `CCCN(Cc1ccccc1)c1nc2c(c(=O)n(Cc3ccccc3)c(=O)n2C)n1C` [Analog 68] the “SLACK Imax” value (WT hSLACK) was 100% and the IC50 (WT hSLACK) was 1.3 µM.

With `CC(C)N(Cc1ccccc1)c1nc2c(c(=O)n(Cc3ccccc3)c(=O)n2C)n1C` [Analog 69] the “SLACK Imax” value (WT hSLACK) was 100% and the IC50 (WT hSLACK) was 3.4 µM.

For `Cn1c(N(Cc2ccccc2)Cc2ccccc2)nc2c1c(=O)n(Cc1ccccc1)c(=O)n2C` [Analog 72], the “SLACK Imax” value (WT hSLACK) was 100% and the IC50 (WT hSLACK) was 1.4 µM.

For `Cn1c(N2Cc3ccccc3C2)nc2c1c(=O)n(Cc1ccccc1)c(=O)n2C` [Analog 74], the “SLACK activity (in words)” value (WT hSLACK; APC, WT SLACK) was “inactive”.

With `Cn1c(N2CCc3ccccc3C2)nc2c1c(=O)n(Cc1ccccc1)c(=O)n2C` [Analog 75] the “SLACK Imax” value (WT hSLACK) was 100% and the IC50 (WT hSLACK) was 2.8 µM.

For `Cn1c(CCc2ccccc2)nc2c1c(=O)n(Cc1ccccc1)c(=O)n2C` [Analog 77], the “SLACK Imax” value (WT hSLACK) was 103% and the IC50 (WT hSLACK) was 7 µM.

For `Cc1cccc(CC(=O)Nc2cnn(-c3cccc(C(=O)NCc4ccccc4-n4cncn4)c3)c2)c1` [Compound 1], the IC50 (WT SLACK [1]) is listed as 3.2 µM and the “hERG (KV11.1) inhibition” value (hERG (KV11.1) channels) is listed as “almost completely inhibited”.

In the case of `O=C(Nc1cccc(C(F)(F)F)c1)c1ccc2nc(N3C(=O)c4ccccc4C3=O)sc2c1` [Compound 2], the IC50 (WT SLACK [1]) is listed as 3 µM and the “hERG (KV11.1) inhibition” value (hERG (KV11.1) channels) is listed as 10–20%.

For `O=C(Nc1cccc(C(F)(F)F)c1)c1ccc(CSc2nnnn2-c2ccccc2)cc1` [Compound 3], the IC50 (WT SLACK [1]) is given as 1.6 µM and the “hERG (KV11.1) inhibition” value (hERG (KV11.1) channels) is given as 45%.

In the case of `C[C@H](NC(=O)c1cc(C(F)(F)F)nn1C)c1nc(-c2ccnc(C(F)(F)F)c2)no1` [Compound 4], the “displacement at GABAA Cl– channels” value (GABAA Cl– channels) is given as 74%, the anticonvulsant effects (Kcnt1^L/L mice) is given as “demonstrated anticonvulsant effects” and the IC50 (SLACK) is given as 0.04 µM.

In the case of `O=C(N[C@@H]1CCc2cc(Cl)ccc21)c1ccc(S(=O)(=O)N2CCCC2)s1` [Compound 5], the IC50 (WT SLACK [2]) is listed as < 1 µM.

In the case of `COc1ccc(Cl)cc1NC(=O)CN1CCN(S(=O)(=O)N2CCC(C)CC2)CC1` [Compound 6], the “frequency of spontaneous calcium oscillations” value [3] is listed as “inhibited the frequency of spontaneous calcium oscillations”, the IC50 (WT SLACK [4]) is listed as 1.7 µM and the IC50 (hERG channel) is listed as > 10 µM.

For `Cc1ccc2cccc(S(=O)(=O)N3CC(c4nc(-c5ccc(F)cc5)no4)C3)c2n1` [Compound 7], the IC50 (WT SLACK [5]) is listed as 0.32 µM, the IC50 (A934T SLACK) is listed as 0.67 µM and the “metabolism in mouse liver microsomes” value [6] is listed as “rapidly metabolized”.
